Measured values as given in patent US11707462B2, “Checkpoint kinase 1 (CHK1) inhibitors and uses thereof” (Boundless Bio, Inc., priority 2021, dated 2023).

Assays:
[1] = test system: p-CHK1 (Ser345); test: AlphaLISA SureFire Ultra p-CHK1 (Ser345) cellular assay in HT29 cells; assay type: cell-based; conditions: Homo sapiens, HT-29, 16 h at 37° C.
Experimental: Example B: AlphaLisa Cellular Assay
Compound activity in cells was measured using an AlphaLISA® SureFire® Ultra™ p-CHK1 (Ser345) assay (Perkin Elmer, catalog no. ALSU-PCHK1-A10K). HT29 cells were cultured in McCoy 5A medium with 10% FBS and 1% penicillin-streptomycin and seeded to 96-well plates (Corning, catalog no. 3599). Compounds were serially diluted in DMSO over a 10-point dose range with 3-fold dilution and to each well containing cells was added compound solution. Plates were centrifuged at 1000 rpm for 30 seconds. Plates were incubated at 37° C. for 16 h. Supernatant was removed by flicking the plate against a paper towel. Wells were washed once with PBS solution. To each well was added freshly prepared lysis buffer and plates were agitated on a plate shaker at 400 rpm for 30 min. The 96-well cell plates were centrifuged at 1500 rpm for 1 minute. From each well was transferred 10 μL of the lysates to a 384-well Optiplate™ (Perkin Elmer, catalog no. 6007290). To each well was added Acceptor Mix (5 μL) and the plates were sealed and wrapped in foil. Plates were agitated on a plate shaker for 2 minutes, then incubated at room temperature for 1 h. To each well was added Donor Mix (5 μL) and the plates were sealed and wrapped in foil. Plates were agitated on a plate shaker for 2 minutes, then incubated at room temperature for 1 h. AlphaLisa signal was read on an EnVision multimode plate reader (Perkin Elmer). Data were fit to dose-response curves using XLfit (IDBS, Surrey, UK) or Prism (GraphPad Software, La Jolla, Calif., US) to calculate IC50 values for each compound tested.

[2] = target: T1, Full-length human Chk1 protein (Homo sapiens, UniProt O14757); test: Kinase HTRF biochemical assay (HTRF KinEASE), Chk1 enzyme activity; conditions: full-length human Chk1, ATP 1 mM, 60 minutes at room temperature
T1 construct: purchased Carna Biosciences, Inc. 02-117
T1 sequence (O14757 1-476): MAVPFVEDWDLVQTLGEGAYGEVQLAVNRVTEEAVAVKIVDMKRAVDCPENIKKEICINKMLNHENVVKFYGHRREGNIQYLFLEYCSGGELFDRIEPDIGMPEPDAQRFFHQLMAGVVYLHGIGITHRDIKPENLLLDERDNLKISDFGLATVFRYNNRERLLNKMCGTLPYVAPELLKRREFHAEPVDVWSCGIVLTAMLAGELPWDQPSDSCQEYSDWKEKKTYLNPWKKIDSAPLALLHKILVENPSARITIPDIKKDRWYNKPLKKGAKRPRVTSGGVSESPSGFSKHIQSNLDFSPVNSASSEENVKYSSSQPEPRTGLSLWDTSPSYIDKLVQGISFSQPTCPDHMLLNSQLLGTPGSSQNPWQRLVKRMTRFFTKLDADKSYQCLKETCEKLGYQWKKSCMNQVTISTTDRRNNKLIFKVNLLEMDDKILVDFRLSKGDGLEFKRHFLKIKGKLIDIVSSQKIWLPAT
In short: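 Full-length human Chk1 (0.012 ng/μL) in buffer with 5 mM MgCl2 and 1 mM DTT, preincubated with compound 10 min at room temperature; reaction with 120 nM biotinylated STK substrate 1 and 1 mM ATP for 60 min at room temperature. HTRF detection via cryptate antibody/streptavidin-XL665; IC50 from 10-point duplicate curves.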

SMILES	IC50 [1]	IC50 [2]
N#Cc1cnc(Nc2cc(-c3ccccc3O[C@H]3CC[C@@H](N)CC3)[nH]n2)cn1 [Example 1-50, 5-((5-(2-(((1s,4s)-4-aminocyclohexyl)oxy)phenyl)-1H-pyrazol-3-yl)amino)pyrazine-2-carbonitrile]	> 1000 nM	100 to 500 nM
N#Cc1cnc(Nc2cc(-c3ccccc3O[C@H]3CC[C@H](N)CC3)[nH]n2)cn1 [Example 1-51, 5-((5-(2-(((1r,4r)-4-aminocyclohexyl)oxy)phenyl)-1H-pyrazol-3-yl)amino)pyrazine-2-carbonitrile]	> 1000 nM	10 to 100 nM
N#Cc1cnc(Nc2cc(-c3ncccc3O[C@H]3C[C@H](N)C3)[nH]n2)cn1 [Example 1-55, 5-((5-(3-((1r,3r)-3-aminocyclobutoxy)pyridin-2-yl)-1H-pyrazol-3-yl)amino)pyrazine-2-carbonitrile]	500 to 1000 nM	10 to 100 nM
CN[C@H]1C[C@H](Oc2ccc(C)nc2-c2cc(Nc3cnc(C#N)cn3)n[nH]2)C1 [Example 1-61, 5-((5-(6-methyl-3-((1r,3r)-3-(methylamino)cyclobutoxy)pyridin-2-yl)-1H-pyrazol-3-yl)amino)pyrazine-2-carbonitrile]	100 to 500 nM	10 to 100 nM
Cc1ccc(O[C@H]2C[C@H](N)C2)c(-c2cc(Nc3cnc(C#N)cn3)n[nH]2)n1 [Example 1-62, 5-((5-(3-((1r,3r)-3-aminocyclobutoxy)-6-methylpyridin-2-yl)-1H-pyrazol-3-yl)amino)pyrazine-2-carbonitrile]	100 to 500 nM	10 to 100 nM

Now from value to compound:

IC50 [1]	IC50 [2]	SMILES
50 to 100 nM	≤ 10 nM	COc1cccc(O[C@@H]2CC[C@@H](N(C)C)C2)c1-c1cc(Nc2cnc(C#N)cn2)n[nH]1 [Example 1-48, 5-((5-(2-(((1R,3R)-3-(dimethylamino)cyclopentyl)oxy)-6-methoxyphenyl)-1H-pyrazol-3-yl)amino)pyrazine-2-carbonitrile]
≤ 50 nM	≤ 10 nM	COc1cccc(O[C@@H]2CC[C@H](N(C)C)C2)c1-c1cc(Nc2cnc(C#N)cn2)n[nH]1 [Example 1-49, 5-((5-(2-(((1R,3S)-3-(dimethylamino)cyclopentyl)oxy)-6-methoxyphenyl)-1H-pyrazol-3-yl)amino)pyrazine-2-carbonitrile]
100 to 500 nM	10 to 100 nM	N#Cc1cnc(Nc2cc(-c3ccccc3O[C@@H]3CC[C@H](N)C3)[nH]n2)cn1 [Example 1-52, 5-((5-(2-(((1R,3S)-3-aminocyclopentyl)oxy)phenyl)-1H-pyrazol-3-yl)amino)pyrazine-2-carbonitrile]
50 to 100 nM	≤ 10 nM	N#Cc1cnc(Nc2cc(-c3ccccc3O[C@@H]3CC[C@@H](N)C3)[nH]n2)cn1 [Example 1-53, 5-((5-(2-(((1R,3R)-3-aminocyclopentyl)oxy)phenyl)-1H-pyrazol-3-yl)amino)pyrazine-2-carbonitrile]
100 to 500 nM	≤ 10 nM	Cc1ccc(O[C@H]2CC[C@H](N)CC2)c(-c2cc(Nc3cnc(C#N)cn3)n[nH]2)n1 [Example 1-56, 5-((5-(3-(((1r,4r)-4-aminocyclohexyl)oxy)-6-methylpyridin-2-yl)-1H-pyrazol-3-yl)amino)pyrazine-2-carbonitrile]
50 to 100 nM	≤ 10 nM	Cc1ccc(O[C@@H]2CC[C@H](N)C2)c(-c2cc(Nc3cnc(C#N)cn3)n[nH]2)n1 [Example 1-57]
≤ 50 nM	≤ 10 nM	N#Cc1cnc(Nc2cc(-c3ncccc3O[C@@H]3CC[C@@H](N)C3)[nH]n2)cn1 [Example 1-58, 5-((5-(3-(((1R,3R)-3-aminocyclopentyl)oxy)pyridin-2-yl)-1H-pyrazol-3-yl)amino)pyrazine-2-carbonitrile]
≤ 50 nM	≤ 10 nM	Cc1ccc(O[C@@H]2CC[C@@H](N)C2)c(-c2cc(Nc3cnc(C#N)cn3)n[nH]2)n1 [Example 1-60, 5-((5-(3-(((1R,3R)-3-aminocyclopentyl)oxy)-6-methylpyridin-2-yl)-1H-pyrazol-3-yl)amino)pyrazine-2-carbonitrile]
